# Reference: the supplement of paper PMC10733146
# Tests used:
# Experiment in all cases: viability relative to DMSO control (fraction); higher = less drug effect (more viable cells)
# Details in all cases: 48 h
# [1] = test system: primary T-NHL patient cells (S058)
# In short: (§1)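 Cells were incubated for 48 h at 37 °C and 5% CO2 in RPMI-1640 with penicillin/streptomycin, L-glutamine and human serum, at 4 × 10^4 cells per well in 384-well plates with compounds pre-plated at five concentrations, one well each. These were primary mononuclear tumour cells, fresh or cryopreserved, Ficoll-isolated from blood or bone marrow or obtained from processed lymph node. Viability values are CellTiter-Glo luminescence relative to the median of 16 inner DMSO wells.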
# [2] = test system: primary MCL patient cells (S041)
# In short: as §1
# [3] = test system: primary AML patient cells (S019)
# In short: as §1
# [4] = test system: primary CLL patient cells (S031)
# In short: as §1
# [5] = test system: primary MCL patient cells (S063)
# In short: as §1
# [6] = test system: primary AML patient cells (S006)
# In short: as §1
# [7] = test system: primary DLBCL patient cells (S049)
# In short: as §1
# [8] = test system: primary AML patient cells (S056)
# In short: as §1
# [9] = test system: primary ALL patient cells (S088)
# In short: as §1
# [10] = test system: primary FL patient cells (S087)
# In short: as §1
# [11] = test system: primary AML patient cells (S011)
# In short: as §1
# [12] = test system: primary DLBCL patient cells (S076)
# In short: as §1
# [13] = test system: primary AML patient cells (S079)
# In short: as §1
# [14] = test system: primary AML patient cells (S085)
# In short: as §1
# [15] = test system: primary FL patient cells (S022)
# In short: as §1
# [16] = test system: primary ALL patient cells (S048)
# In short: as §1
# [17] = test system: primary AML patient cells (S012)
# In short: as §1
smiles,measurement,setting,value
C/C=C1\NC(=O)[C@H]2CSSCC/C=C/[C@H](CC(=O)N[C@H](C(C)C)C(=O)N2)OC(=O)[C@H](C(C)C)NC1=O [Romidepsin],viability,[1]; 0.00032 µM,0.992
same,viability,[1]; 0.0016 µM,0.651
same,viability,[1]; 0.008 µM,0.365
same,viability,[1]; 0.04 µM,0.295
same,viability,[1]; 0.2 µM,0.315
same,viability,[2]; 0.00032 µM,0.932
same,viability,[2]; 0.0016 µM,0.817
same,viability,[2]; 0.008 µM,0.222
same,viability,[2]; 0.04 µM,0.175
same,viability,[2]; 0.2 µM,0.194
same,viability,[3]; 0.00032 µM,1
same,viability,[3]; 0.0016 µM,0.996
same,viability,[3]; 0.008 µM,0.52
same,viability,[3]; 0.04 µM,0.417
same,viability,[3]; 0.2 µM,0.434
same,viability,[4]; 0.00032 µM,1.07
same,viability,[4]; 0.0016 µM,0.717
same,viability,[4]; 0.008 µM,0.0898
same,viability,[4]; 0.04 µM,0.061
same,viability,[4]; 0.2 µM,0.0838
same,viability,[5]; 0.00032 µM,0.923
same,viability,[5]; 0.0016 µM,0.968
same,viability,[5]; 0.008 µM,0.0338
same,viability,[5]; 0.04 µM,0.0187
same,viability,[5]; 0.2 µM,0.0209
same,viability,[6]; 0.00032 µM,1
same,viability,[6]; 0.0016 µM,0.911
same,viability,[6]; 0.008 µM,0.477
same,viability,[6]; 0.04 µM,0.127
same,viability,[6]; 0.2 µM,0.0886
same,viability,[7]; 0.00032 µM,0.886
same,viability,[7]; 0.0016 µM,0.0597
same,viability,[7]; 0.008 µM,0.026
same,viability,[7]; 0.04 µM,0.0248
same,viability,[7]; 0.2 µM,0.0226
same,viability,[8]; 0.00032 µM,0.924
same,viability,[8]; 0.0016 µM,0.89
same,viability,[8]; 0.008 µM,0.156
same,viability,[8]; 0.04 µM,0.0512
same,viability,[8]; 0.2 µM,0.0574
same,viability,[9]; 0.00032 µM,0.851
same,viability,[9]; 0.0016 µM,0.577
same,viability,[9]; 0.008 µM,0.123
same,viability,[9]; 0.04 µM,0.0858
same,viability,[9]; 0.2 µM,0.0855
same,viability,[10]; 0.00032 µM,0.978
same,viability,[10]; 0.0016 µM,0.911
same,viability,[10]; 0.008 µM,0.642
same,viability,[10]; 0.04 µM,0.498
same,viability,[10]; 0.2 µM,0.527
same,viability,[11]; 0.00032 µM,0.935
same,viability,[11]; 0.0016 µM,0.727
same,viability,[11]; 0.008 µM,0.507
same,viability,[11]; 0.04 µM,0.373
same,viability,[11]; 0.2 µM,0.345
same,viability,[12]; 0.00032 µM,1.06
same,viability,[12]; 0.0016 µM,0.614
same,viability,[12]; 0.008 µM,0.264
same,viability,[12]; 0.04 µM,0.188
same,viability,[12]; 0.2 µM,0.184
same,viability,[13]; 0.00032 µM,0.978
same,viability,[13]; 0.0016 µM,0.85
same,viability,[13]; 0.008 µM,0.269
same,viability,[13]; 0.04 µM,0.31
same,viability,[13]; 0.2 µM,0.304
same,viability,[14]; 0.00032 µM,1.04
same,viability,[14]; 0.0016 µM,0.817
same,viability,[14]; 0.008 µM,0.103
same,viability,[14]; 0.04 µM,0.0584
same,viability,[14]; 0.2 µM,0.0681
same,viability,[15]; 0.00032 µM,0.968
same,viability,[15]; 0.0016 µM,0.84
same,viability,[15]; 0.008 µM,0.543
same,viability,[15]; 0.04 µM,0.263
same,viability,[15]; 0.2 µM,0.206
same,viability,[16]; 0.00032 µM,0.791
same,viability,[16]; 0.0016 µM,0.184
same,viability,[16]; 0.008 µM,0.0722
same,viability,[16]; 0.04 µM,0.0497
same,viability,[16]; 0.2 µM,0.0502
same,viability,[17]; 0.00032 µM,1.1
same,viability,[17]; 0.0016 µM,1.01
same,viability,[17]; 0.008 µM,0.722
same,viability,[17]; 0.04 µM,0.0806
same,viability,[17]; 0.2 µM,0.0665
CO[C@H]1C[C@@H]2CC[C@@H](C)[C@@](O)(O2)C(=O)C(=O)N2CCCC[C@H]2C(=O)O[C@H]([C@H](C)C[C@@H]2CC[C@@H](OC(=O)C(C)(CO)CO)[C@H](OC)C2)CC(=O)[C@H](C)/C=C(\C)[C@@H](O)[C@@H](OC)C(=O)[C@H](C)C[C@H](C)/C=C/C=C/C=C/1C [Temsirolimus],viability,[1]; 0.032 µM,0.902
same,viability,[1]; 0.16 µM,0.809
same,viability,[1]; 0.8 µM,0.904
same,viability,[1]; 4 µM,0.873
same,viability,[1]; 20 µM,0.697
same,viability,[2]; 0.032 µM,0.853
same,viability,[2]; 0.16 µM,0.829
same,viability,[2]; 0.8 µM,0.858
same,viability,[2]; 4 µM,0.848
same,viability,[2]; 20 µM,0.768
same,viability,[3]; 0.032 µM,0.909
same,viability,[3]; 0.16 µM,0.834
same,viability,[3]; 0.8 µM,0.915
same,viability,[3]; 4 µM,0.873
same,viability,[3]; 20 µM,0.739
same,viability,[4]; 0.032 µM,0.795
same,viability,[4]; 0.16 µM,0.708
same,viability,[4]; 0.8 µM,0.8
same,viability,[4]; 4 µM,0.831
same,viability,[4]; 20 µM,0.701
same,viability,[5]; 0.032 µM,0.913
same,viability,[5]; 0.16 µM,0.892
same,viability,[5]; 0.8 µM,0.9
same,viability,[5]; 4 µM,0.946
same,viability,[5]; 20 µM,0.843
same,viability,[6]; 0.032 µM,0.824
same,viability,[6]; 0.16 µM,0.746
same,viability,[6]; 0.8 µM,0.709
same,viability,[6]; 4 µM,0.65
same,viability,[6]; 20 µM,0.415
same,viability,[7]; 0.032 µM,1.02
same,viability,[7]; 0.16 µM,0.986
same,viability,[7]; 0.8 µM,0.987
same,viability,[7]; 4 µM,0.966
same,viability,[7]; 20 µM,0.794
same,viability,[8]; 0.032 µM,0.606
same,viability,[8]; 0.16 µM,0.789
same,viability,[8]; 0.8 µM,0.847
same,viability,[8]; 4 µM,0.735
same,viability,[8]; 20 µM,0.425
same,viability,[9]; 0.032 µM,0.737
same,viability,[9]; 0.16 µM,0.688
same,viability,[9]; 0.8 µM,0.693
same,viability,[9]; 4 µM,0.703
same,viability,[9]; 20 µM,0.576
same,viability,[10]; 0.032 µM,0.833
same,viability,[10]; 0.16 µM,0.813
same,viability,[10]; 0.8 µM,0.84
same,viability,[10]; 4 µM,0.82
same,viability,[10]; 20 µM,0.713
same,viability,[11]; 0.032 µM,0.88
same,viability,[11]; 0.16 µM,0.805
same,viability,[11]; 0.8 µM,0.892
same,viability,[11]; 4 µM,0.84
same,viability,[11]; 20 µM,0.498
same,viability,[12]; 0.032 µM,0.821
same,viability,[12]; 0.16 µM,0.753
same,viability,[12]; 0.8 µM,0.805
same,viability,[12]; 4 µM,0.765
same,viability,[12]; 20 µM,0.616
same,viability,[13]; 0.032 µM,0.764
same,viability,[13]; 0.16 µM,0.771
same,viability,[13]; 0.8 µM,0.768
same,viability,[13]; 4 µM,0.755
same,viability,[13]; 20 µM,0.675
same,viability,[14]; 0.032 µM,0.852
same,viability,[14]; 0.16 µM,0.752
same,viability,[14]; 0.8 µM,0.918
same,viability,[14]; 4 µM,0.79
same,viability,[14]; 20 µM,0.58
same,viability,[15]; 0.032 µM,0.962
same,viability,[15]; 0.16 µM,0.821
same,viability,[15]; 0.8 µM,0.966
same,viability,[15]; 4 µM,0.917
same,viability,[15]; 20 µM,0.569
same,viability,[16]; 0.032 µM,0.747
same,viability,[16]; 0.16 µM,0.706
same,viability,[16]; 0.8 µM,0.702
same,viability,[16]; 4 µM,0.748
same,viability,[16]; 20 µM,0.49
same,viability,[17]; 0.032 µM,0.814
same,viability,[17]; 0.16 µM,0.732
same,viability,[17]; 0.8 µM,0.85
same,viability,[17]; 4 µM,0.845
same,viability,[17]; 20 µM,0.702
